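Where inhibition never reached the appropriate level, the endpoint shown equals the highest concentration tested. Otherwise, values were interpolated linearly from a five-concentration, 48-hour dose response in 96-well plates. GI50 = concentration required for 50% inhibition of growth.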 Activity calls are given as the source filed them. No stated cut-off is given here; in the data, active = GI50 up to about 1.1 µM and inactive = higher.
Legend:
Assay in all cases: NCI-60 cell line screen, 48 h
[1] = tested on: 786-0
[2] = tested on: A549
[3] = tested on: ACHN
[4] = tested on: BT-549
[5] = tested on: CAKI-1
[6] = tested on: CCRF-CEM
[7] = tested on: COLO 205
[8] = tested on: DU-145
[9] = tested on: EKVX
[10] = tested on: HCC 2998
[11] = tested on: HCT-116
[12] = tested on: HCT-15
[13] = tested on: HOP-62
[14] = tested on: HOP-92
[15] = tested on: HT-29
[16] = tested on: Hs-578T
[17] = tested on: IGROV-1
[18] = tested on: K562
[19] = tested on: KM12
[20] = tested on: LOX IMVI
[21] = tested on: M14
[22] = tested on: MCF7
[23] = tested on: MDA-MB-231
[24] = tested on: MDA-MB-435
[25] = tested on: MDA-N
[26] = tested on: MOLT-4
[27] = tested on: Malme-3M
[28] = tested on: NCI-H23
[29] = tested on: NCI-H460
[30] = tested on: NCI-H522
[31] = tested on: NCI/ADR-RES
[32] = tested on: OVCAR-3
[33] = tested on: OVCAR-4
[34] = tested on: OVCAR-5
[35] = tested on: OVCAR-8
[36] = tested on: PC-3
[37] = tested on: RPMI-8226
[38] = tested on: RXF 393
[39] = tested on: SF-295
[40] = tested on: SK-MEL-28
[41] = tested on: SK-MEL-2
[42] = tested on: SK-MEL-5
[43] = tested on: SK-OV-3
[44] = tested on: SN12C
[45] = tested on: SNB-19
[46] = tested on: SNB-75
[47] = tested on: SR
[48] = tested on: SW-620
[49] = tested on: T47D
[50] = tested on: TK-10
[51] = tested on: U-251
[52] = tested on: UACC-257
[53] = tested on: UACC-62
[54] = tested on: UO-31
[55] = tested on: HL-60
[56] = tested on: NCI-H226
[57] = tested on: SF-268
[58] = tested on: SF-539

Cc1cccc2nc3cccc(C(=O)NCCC[N+](C)(CCCNC(=O)c4cccc5nc6cccc(C)c6nc45)Cc4ccc([N+](=O)[O-])n4C)c3nc12
GI50 [1]: 0.32 µM (active)
GI50 [2]: 0.348 µM (active)
GI50 [3]: 0.321 µM (active)
GI50 [4]: > 100 µM (inactive)
GI50 [5]: 0.895 µM (active)
GI50 [6]: 0.94 µM (active)
GI50 [7]: 3.58 µM (inactive)
GI50 [8]: 1.45 µM (inactive)
GI50 [9]: 2.1 µM (inactive)
GI50 [10]: 11.6 µM (inactive)
GI50 [11]: 0.0615 µM (active)
GI50 [12]: 2.4 µM
GI50 [13]: 0.809 µM (active)
GI50 [14]: > 100 µM (inactive)
GI50 [15]: 0.396 µM (active)
GI50 [16]: 18.5 µM (inactive)
GI50 [17]: 0.703 µM (active)
GI50 [18]: 0.407 µM (active)
GI50 [19]: 2.26 µM (inactive)
GI50 [20]: 0.871 µM (active)
GI50 [21]: > 31.3 µM (inactive)
GI50 [22]: 0.552 µM (active)
GI50 [23]: 17.5 µM (inactive)
GI50 [24]: > 27 µM (inactive)
GI50 [25]: 6.08 µM (inactive)
GI50 [26]: 0.377 µM (active)
GI50 [27]: 35.9 µM (inactive)
GI50 [28]: > 67.1 µM (inactive)
GI50 [29]: 0.405 µM (active)
GI50 [30]: 4.13 µM (inactive)
GI50 [31]: > 32.3 µM (inactive)
GI50 [32]: 3.98 µM (inactive)
GI50 [33]: 27.3 µM (inactive)
GI50 [34]: 6.68 µM (inactive)
GI50 [35]: 0.49 µM (active)
GI50 [36]: 1.83 µM (inactive)
GI50 [37]: 1.33 µM (inactive)
GI50 [38]: > 100 µM (inactive)
GI50 [39]: 5.66 µM (inactive)
GI50 [40]: 3.94 µM (inactive)
GI50 [41]: 8.32 µM (inactive)
GI50 [42]: 2.89 µM (inactive)
GI50 [43]: 41.5 µM (inactive)
GI50 [44]: 0.839 µM (active)
GI50 [45]: 13.1 µM (inactive)
GI50 [46]: > 100 µM (inactive)
GI50 [47]: 0.294 µM (active)
GI50 [48]: 0.284 µM (active)
GI50 [49]: 14.9 µM (inactive)
GI50 [50]: > 100 µM (inactive)
GI50 [51]: 0.456 µM (active)
GI50 [52]: > 31.6 µM (inactive)
GI50 [53]: 5.4 µM (inactive)
GI50 [54]: 1.04 µM (active)

Clc1ncc(C(Cl)(Cl)Cl)nc1-c1ccccc1
GI50 [1]: 1.95 µM (inactive)
GI50 [2]: 6.46 µM (inactive)
GI50 [3]: 1.68 µM (inactive)
GI50 [4]: 1.65 µM (inactive)
GI50 [5]: 2.2 µM (inactive)
GI50 [6]: 14.6 µM (inactive)
GI50 [7]: 1.87 µM (inactive)
GI50 [8]: 1.61 µM (inactive)
GI50 [9]: 2.29 µM (inactive)
GI50 [10]: 1.52 µM (inactive)
GI50 [11]: 1.87 µM (inactive)
GI50 [12]: 1.21 µM
GI50 [55]: 2.7 µM (inactive)
GI50 [13]: 2.26 µM (inactive)
GI50 [14]: 1.99 µM (inactive)
GI50 [15]: 1.82 µM (inactive)
GI50 [16]: 2.82 µM (inactive)
GI50 [17]: 2.4 µM (inactive)
GI50 [18]: 2.46 µM (inactive)
GI50 [19]: 1.82 µM (inactive)
GI50 [20]: 4.13 µM (inactive)
GI50 [21]: 2.23 µM (inactive)
GI50 [22]: 1.68 µM (inactive)
GI50 [23]: 1.97 µM (inactive)
GI50 [24]: 1.77 µM (inactive)
GI50 [25]: 1.87 µM (inactive)
GI50 [26]: 4.75 µM (inactive)
GI50 [27]: 5.14 µM (inactive)
GI50 [56]: 18.4 µM (inactive)
GI50 [28]: 2.24 µM (inactive)
GI50 [29]: 3.01 µM (inactive)
GI50 [30]: 2.52 µM (inactive)
GI50 [31]: 4.07 µM (inactive)
GI50 [32]: 1.72 µM (inactive)
GI50 [33]: 4.04 µM (inactive)
GI50 [34]: 16.1 µM (inactive)
GI50 [35]: 2.57 µM (inactive)
GI50 [36]: 1.78 µM (inactive)
GI50 [37]: 0.598 µM (active)
GI50 [38]: 1.64 µM (inactive)
GI50 [57]: 2.19 µM (inactive)
GI50 [39]: 3.63 µM (inactive)
GI50 [58]: 2.63 µM (inactive)
GI50 [40]: 3.79 µM (inactive)
GI50 [41]: 2.27 µM (inactive)
GI50 [42]: 12.2 µM (inactive)
GI50 [43]: 11.9 µM (inactive)
GI50 [44]: 2.86 µM (inactive)
GI50 [45]: 1.69 µM (inactive)
GI50 [46]: 2.56 µM (inactive)
GI50 [47]: 3.85 µM (inactive)
GI50 [48]: 4.21 µM (inactive)
GI50 [49]: 1.96 µM (inactive)
GI50 [50]: 2.3 µM (inactive)
GI50 [51]: 1.84 µM (inactive)
GI50 [52]: 2.14 µM (inactive)
GI50 [53]: 2.56 µM (inactive)
GI50 [54]: 1.84 µM (inactive)
